Values after ≈ are worked out from the molar mass of the structure shown. Read-outs that look alike come from different tables or passages of the source.
How the values were obtained:
Assay type in all cases: cell-based
[1] = system: P. aeruginosa PA12; experiment: MIC by microdilution with PaβN or EGTA, clinical isolate overexpressing efflux pumps; conditions: Pseudomonas aeruginosa
Method: (§1) MICs of 36 clinical and laboratory strains of PA with known efflux phenotype are measured by microdilution in cation-adjusted Muller-Hinton broth (CA-MHB) or in RPMI medium (commonly used in eukaryotic cell culture). Phe-Arg-β-naphthylamide (PaβN, 50 mg/L) and EGTA 5 mM are used to inhibit efflux pumps and alter OM integrity, respectively. P. aeruginosa strain ATCC PAO1 is used as reference. PA12 is a clinical strain overexpressing the 4 main efflux systems (MexAB, MexCD, MexEF, MexXY), PA403 is a laboratory strain deleted in the genes coding for the 4 efflux systems. A series of reference strains or of clinical isolates for which the expression of genes coding for efflux pumps is known is also used for MICs determinations. MICs are measured by microdilution in MH broth or in RPMI medium (used for eukaryotic cells culture) supplemented with 10% of fetal calf serum, or in MH broth supplemented by increasing amounts of serum. EGTA (5 mM) was used as a chelating agent (disrupting outer membrane integrity) and PaβN (50 mg/L) as an unspecific efflux inhibitor.

[2] = system: P. aeruginosa PA403; experiment: MIC by microdilution with PaβN or EGTA, efflux-deleted laboratory strain; conditions: Pseudomonas aeruginosa, read-out: MIC
Method: as §1, with “The compounds described herein are poor substrates of efflux pumps expressed in P. aeruginosa (PA). MICs of” for “MICs of”

[3] = system: P. aeruginosa (PA); experiment: MIC by microdilution, 36 clinical and laboratory strains with known efflux phenotype
Method: as §1

CC[C@H]1OC(=O)[C@H](C)C(=O)[C@H](C)[C@@H](O[C@@H]2O[C@H](C)C[C@H](N(C)C)[C@H]2O)[C@](C)(OC)C[C@@H](C)C(=O)[C@H](C)[C@H]2N(CCCCn3cnc(-c4cccnc4)c3)C(=O)O[C@]12C [TEL, telithromycin]
MIC ([1]; PA12, PA12, CA-MHB, EGTA 5 mM): 32 µg/mL (≈ 39.4 µM) | MIC ([1]; PA12, PA12, CA-MHB, PaβN 50 mg/L): 4 µg/mL (≈ 4.93 µM) | MIC ([1]; PA12, PA12, CA-MHB, control conditions (CT)): 128 µg/mL (≈ 158 µM) | MIC ([1]; PA12, PA12, RPMI, EGTA 5 mM): 1 µg/mL (≈ 1.23 µM) | MIC ([1]; PA12, PA12, RPMI, PaβN 50 mg/L): 4 µg/mL (≈ 4.93 µM) | MIC ([1]; PA12, PA12, RPMI, control conditions (CT)): 4 µg/mL (≈ 4.93 µM) | MIC ([2]; PA403, P403, CA-MHB, EGTA 5 mM): 2 µg/mL (≈ 2.46 µM) | MIC ([2]; PA403, P403, CA-MHB, control conditions (CT)): 4 µg/mL (≈ 4.93 µM) | MIC ([2]; PA403, P403, RPMI, EGTA 5 mM): 0.06 µg/mL (≈ 0.0739 µM) | MIC ([2]; PA403, P403, RPMI, PaβN 50 mg/L): 1 µg/mL (≈ 1.23 µM) | MIC ([2]; PA403, P403, RPMI, control conditions (CT)): 0.5 µg/mL (≈ 0.616 µM) | MIC ([3]; strain 1, efflux AB+, MHB): 128 µg/mL (≈ 158 µM) | MIC ([3]; strain 1, efflux AB+, RPMI): 4 µg/mL (≈ 4.93 µM) | MIC ([3]; strain 2, efflux CD+, MHB): 256 µg/mL (≈ 315 µM) | MIC ([3]; strain 2, efflux CD+, RPMI): 16 µg/mL (≈ 19.7 µM) | MIC ([3]; strain 3, efflux EF+, MHB): 64 µg/mL (≈ 78.8 µM) | MIC ([3]; strain 3, efflux EF+, RPMI): 0.25 µg/mL (≈ 0.308 µM) | MIC ([3]; strain 4, efflux XY+, MHB): 128 µg/mL (≈ 158 µM) | MIC ([3]; strain 4, efflux XY+, RPMI): 4 µg/mL (≈ 4.93 µM) | MIC ([3]; strain 11, efflux AB + CD+, MHB): 64 µg/mL | MIC ([3]; strain 11, efflux AB + CD+, RPMI): 1 µg/mL | MIC ([3]; strain 12, efflux AB + CD + EF + XY+, MHB): 128 µg/mL | MIC ([3]; strain 12, efflux AB + CD + EF + XY+, RPMI): 4 µg/mL | MIC ([3]; strain 16, efflux AB + XY+, MHB): 128 µg/mL | MIC ([3]; strain 16, efflux AB + XY+, RPMI): 4 µg/mL | MIC ([3]; strain 21, efflux AB+, MHB): 64 µg/mL (≈ 78.8 µM) | MIC ([3]; strain 21, efflux AB+, RPMI): 2 µg/mL (≈ 2.46 µM) | MIC ([3]; strain 22, efflux XY+, MHB): 128 µg/mL (≈ 158 µM) | MIC ([3]; strain 22, efflux XY+, RPMI): 2 µg/mL (≈ 2.46 µM) | MIC ([3]; strain 40, efflux EF+, MHB): 64 µg/mL (≈ 78.8 µM) | MIC ([3]; strain 40, efflux EF+, RPMI): 2 µg/mL (≈ 2.46 µM) | MIC ([3]; strain 41, efflux CD+, MHB): 256 µg/mL (≈ 315 µM) | MIC ([3]; strain 41, efflux CD+, RPMI): 4 µg/mL (≈ 4.93 µM) | MIC ([3]; strain 48, efflux CD + EF + XY+, MHB): 128 µg/mL | MIC ([3]; strain 48, efflux CD + EF + XY+, RPMI): 8 µg/mL | MIC ([3]; strain 49, efflux CD + EF + XY+, MHB): 128 µg/mL | MIC ([3]; strain 49, efflux CD + EF + XY+, RPMI): 4 µg/mL | MIC ([3]; strain 63, efflux AB + EF + XY+, MHB): 128 µg/mL | MIC ([3]; strain 63, efflux AB + EF + XY+, RPMI): 4 µg/mL | MIC ([3]; strain 68, efflux AB + XY+, MHB): 128 µg/mL | MIC ([3]; strain 68, efflux AB + XY+, RPMI): 4 µg/mL | MIC ([3]; strain 133, efflux EF + XY+, MHB): 128 µg/mL | MIC ([3]; strain 133, efflux EF + XY+, RPMI): 4 µg/mL | MIC ([3]; strain 156, efflux EF + XY+, MHB): 128 µg/mL | MIC ([3]; strain 156, efflux EF + XY+, RPMI): 2 µg/mL | MIC ([3]; strain 168B, efflux CD + XY+, MHB): 256 µg/mL | MIC ([3]; strain 168B, efflux CD + XY+, RPMI): 4 µg/mL | MIC ([3]; strain 207, efflux AB + EF + XY+, MHB): 128 µg/mL | MIC ([3]; strain 207, efflux AB + EF + XY+, RPMI): 4 µg/mL | MIC ([3]; strain 266B, efflux AB + CD+, MHB): 256 µg/mL | MIC ([3]; strain 266B, efflux AB + CD+, RPMI): 4 µg/mL | MIC ([3]; strain 333A, efflux AB + EF+, MHB): 64 µg/mL | MIC ([3]; strain 333A, efflux AB + EF+, RPMI): 2 µg/mL | MIC ([3]; strain 335, efflux AB + EF+, MHB): 128 µg/mL | MIC ([3]; strain 335, efflux AB + EF+, RPMI): 4 µg/mL | MIC ([3]; strain 391, efflux EF−, MHB): 64 µg/mL (≈ 78.8 µM) | MIC ([3]; strain 391, efflux EF−, RPMI): 2 µg/mL (≈ 2.46 µM) | MIC ([3]; strain 392, efflux CD−, MHB): 32 µg/mL (≈ 39.4 µM) | MIC ([3]; strain 392, efflux CD−, RPMI): 0.5 µg/mL (≈ 0.616 µM) | MIC ([3]; strain 394, efflux XY−, MHB): 64 µg/mL (≈ 78.8 µM) | MIC ([3]; strain 394, efflux XY−, RPMI): 1 µg/mL (≈ 1.23 µM) | MIC ([3]; strain 395, efflux HI−, MHB): 32 µg/mL (≈ 39.4 µM) | MIC ([3]; strain 395, efflux HI−, RPMI): 2 µg/mL (≈ 2.46 µM) | MIC ([3]; strain 396, ompH−, MHB): 16 µg/mL (≈ 19.7 µM) | MIC ([3]; strain 396, ompH−, RPMI): 0.25 µg/mL (≈ 0.308 µM) | MIC ([3]; strain 397, efflux AB−, MHB): 8 µg/mL (≈ 9.85 µM) | MIC ([3]; strain 397, efflux AB−, RPMI): 0.03 µg/mL (≈ 0.0369 µM) | MIC ([3]; strain 398, efflux CD−, MHB): 8 µg/mL (≈ 9.85 µM) | MIC ([3]; strain 398, efflux CD−, RPMI): 0.25 µg/mL (≈ 0.308 µM) | MIC ([3]; strain 399, efflux AB − EF−, MHB): 4 µg/mL (≈ 4.93 µM) | MIC ([3]; strain 399, efflux AB − EF−, RPMI): 0.25 µg/mL (≈ 0.308 µM) | MIC ([3]; strain 400, efflux XY−, MHB): 8 µg/mL (≈ 9.85 µM) | MIC ([3]; strain 400, efflux XY−, RPMI): 0.25 µg/mL (≈ 0.308 µM) | MIC ([3]; strain 401, ompH−, MHB): 4 µg/mL (≈ 4.93 µM) | MIC ([3]; strain 401, ompH−, RPMI): 1 µg/mL (≈ 1.23 µM) | MIC ([3]; strain 403, efflux AB − CD − EF − XY−, MHB): 4 µg/mL (≈ 4.93 µM) | MIC ([3]; strain 403, efflux AB − CD − EF − XY−, RPMI): 0.5 µg/mL (≈ 0.616 µM) | MIC ([3]; strain 405, efflux AB − CD − EF − XY−, MHB): 8 µg/mL (≈ 9.85 µM) | MIC ([3]; strain 405, efflux AB − CD − EF − XY−, RPMI): 0.25 µg/mL (≈ 0.308 µM) | MIC ([3]; strain 434, efflux AB + CD + XY+, MHB): 128 µg/mL | MIC ([3]; strain 434, efflux AB + CD + XY+, RPMI): 4 µg/mL | MIC ([3]; strain PAO1, REFERENCE, MHB): 256 µg/mL (≈ 315 µM) | MIC ([3]; strain PAO1, REFERENCE, RPMI): 2 µg/mL (≈ 2.46 µM)

Source: patent US9861616B2, “Methods for treating respiratory diseases and formulations therefor” (priority 2013, dated 2018)
